Assay results published in patent publication US20170349638A1, “COMPANION DIAGNOSTIC TOOL FOR PEPTIDOMIMETIC MACROCYCLES” (AILERON Therapeutics, Inc., priority 2016, published 2017).
Where a SMILES comes first, the peptide text is derived from it. Bridges are numbered along the chain shown (N, C = ends). [ ]: non-standard residue; d: D form. R8 = C=CCCCCCC[C@@](C)(N)C(=O)O; S5 = C=CCCC[C@](C)(N)C(=O)O; Nle = CCCC[C@H](N)C(=O)O

Test: Circular dichroism (CD) analysis of alpha-helicity
Format: physicochemical
Details: 222 nm; for Molar Ellipticity 50% TFE (222 in 50% TFE): CD buffer with 50% TFE; for Molar Ellipticity 50% TFE (222 in 50% TFE) / Molar Ellipticity Benign (222 in 0% TFE): 0.05 mg/ml, 4° C.; for Molar Ellipticity Benign (222 in 0% TFE): benign CD buffer (20 mM phosphoric acid, pH 2); for Molar Ellipticity TFE − Molar Ellipticity Benign: difference 50% TFE minus benign buffer
Procedure: A Peltier temperature controller was used to maintain temperature control of the optical cell. Results are expressed as mean molar ellipticity [θ] […] Peptide concentrations were determined by amino acid analysis. Stock solutions of peptides were prepared in benign CD buffer (20 mM phosphoric acid, pH 2). The stocks were used to prepare peptide solutions of 0.05 mg/ml in either benign CD buffer or CD buffer with 50% trifluoroethanol (TFE) for analyses in a 10 mm pathlength cell. […] The average of six scans was reported.

CC(=O)N[C@@H](CC(C)C)C(=O)N[C@H](C(=O)N[C@@H](Cc1ccccc1)C(=O)N[C@]1(C)CCCCCCC=CCCC[C@@](C)(C(=O)N[C@@H](C)C(=O)N[C@@H](C)C(=O)N[C@@H](C)C(=O)N[C@H](C)C(N)=O)NC(=O)[C@H](CC(C)C)NC(=O)[C@H](CCC(N)=O)NC(=O)[C@H](C)NC(=O)[C@H](Cc2c[nH]c3ccccc23)NC(=O)[C@H](Cc2ccc(O)cc2)NC(=O)[C@H](C)NC1=O)[C@@H](C)O (single isomer, unassigned) [compound 230]
Molar Ellipticity 50% TFE (222 in 50% TFE): −17974 deg cm^2dmol^−1 | Molar Ellipticity Benign (222 in 0% TFE): −213.2 deg cm^2dmol^−1 | Molar Ellipticity TFE − Molar Ellipticity Benign: −17760.8 deg cm^2dmol^−1

CC(=O)N[C@@H](CC(C)C)C(=O)N[C@H](C(=O)N[C@@H](Cc1ccccc1)C(=O)N[C@]1(C)CCCCCCC=CCCC[C@@](C)(C(=O)N[C@@H](CO)C(=O)N[C@@H](C)C(=O)N[C@@H](Cc2ccccc2)C(N)=O)NC(=O)[C@H](CC(C)C)NC(=O)[C@H](CCC(N)=O)NC(=O)[C@H](C)NC(=O)[C@H](Cc2c[nH]c3ccccc23)NC(=O)[C@H](Cc2ccc(O)cc2)NC(=O)[C@H](C)NC1=O)[C@@H](C)O [compound 7] (Ac-LTF[R8]AYWAQL[S5]SAF-NH2; staple 4-11)
Molar Ellipticity 50% TFE (222 in 50% TFE): −19921.4 deg cm^2dmol^−1 | Molar Ellipticity Benign (222 in 0% TFE): 124 deg cm^2dmol^−1 | Molar Ellipticity TFE − Molar Ellipticity Benign: −20045.4 deg cm^2dmol^−1

CC(=O)N[C@@H](CC(C)C)C(=O)N[C@H](C(=O)N[C@@H](Cc1ccccc1)C(=O)N[C@]1(C)CCCCCCC=CCCC[C@@](C)(C(=O)N[C@@H](CO)C(=O)N[C@@H](C)C(=O)N[C@@H](C)C(N)=O)NC(=O)[C@H](CC(C)C)NC(=O)[C@H](CCC(N)=O)NC(=O)[C@H](C)NC(=O)[C@H](Cc2c[nH]c3ccccc23)NC(=O)[C@H](Cc2ccc(O)cc2)NC(=O)[C@H](C)NC1=O)[C@@H](C)O [compound 11] (Ac-LTF[R8]AYWAQL[S5]SAA-NH2; staple 4-11)
Molar Ellipticity 50% TFE (222 in 50% TFE): −16623.4 deg cm^2dmol^−1 | Molar Ellipticity Benign (222 in 0% TFE): −398.2 deg cm^2dmol^−1 | Molar Ellipticity TFE − Molar Ellipticity Benign: 16225.2 deg cm^2dmol^−1

CCCC[C@H](NC(=O)[C@H](CCC(N)=O)NC(=O)[C@H](CCC(N)=O)NC(=O)[C@]1(C)CCCC=CCCCCCC[C@@](C)(NC(=O)[C@H](Cc2ccccc2)NC(C)=O)C(=O)N[C@@H](C)C(=O)N[C@@H](Cc2ccc(O)cc2)C(=O)N[C@@H](Cc2c[nH]c3ccccc23)C(=O)N[C@@H]([C@@H](C)O)C(=O)N[C@@H](C)C(=O)N[C@@H](CC(C)C)C(=O)N1)C(=O)N[C@@H](C(N)=O)C(C)C [compound 41] (Ac-F[R8]AYWTAL[S5]QQ[Nle][dV]-NH2; staple 2-9)
Molar Ellipticity 50% TFE (222 in 50% TFE): −21319.4 deg cm^2dmol^−1 | Molar Ellipticity Benign (222 in 0% TFE): −909 deg cm^2dmol^−1 | Molar Ellipticity TFE − Molar Ellipticity Benign: 20410.4 deg cm^2dmol^−1

CC(=O)N[C@@H](CC(C)C)C(=O)N[C@H](C(=O)N[C@@H](Cc1ccccc1)C(=O)N[C@]1(C)CCCCCCC=CCCC[C@@](C)(C(=O)N[C@@H](Cc2c[nH]cn2)C(=O)N[C@@H](Cc2c[nH]cn2)C(=O)N[C@@H](CC(C)C)C(=O)N[C@H](C)C(N)=O)NC(=O)[C@H](CC(C)C)NC(=O)[C@H](CCC(N)=O)NC(=O)[C@H](C)NC(=O)[C@H](Cc2c[nH]c3ccccc23)NC(=O)[C@H](Cc2ccc(O)cc2)NC(=O)[C@H](C)NC1=O)[C@@H](C)O [compound 43] (Ac-LTF[R8]AYWAQL[S5]HHL[dA]-NH2; staple 4-11)
Molar Ellipticity 50% TFE (222 in 50% TFE): −18247.4 deg cm^2dmol^−1 | Molar Ellipticity Benign (222 in 0% TFE): −15334.5 deg cm^2dmol^−1 | Molar Ellipticity TFE − Molar Ellipticity Benign: 2912.9 deg cm^2dmol^−1

CCCC[C@H](NC(=O)[C@H](C)NC(=O)[C@H](C)NC(=O)[C@]1(C)CCC/C=C/CCCCCC[C@@](C)(NC(=O)[C@H](Cc2ccccc2)NC(=O)[C@@H](NC(=O)[C@H](CC(C)C)NC(C)=O)[C@@H](C)O)C(=O)N[C@@H](C)C(=O)N[C@@H](Cc2ccc(O)cc2)C(=O)N[C@@H](Cc2c[nH]c3ccccc23)C(=O)N[C@@H](C)C(=O)N[C@@H](CCC(N)=O)C(=O)N[C@@H](CC(C)C)C(=O)N1)C(=O)N[C@@H](C)C(N)=O [compound 69]
Molar Ellipticity 50% TFE (222 in 50% TFE): −21509.7 deg cm^2dmol^−1 | Molar Ellipticity Benign (222 in 0% TFE): −102.6 deg cm^2dmol^−1
